Reference: patent US20250064846A1, “TREATMENT AND PREVENTION OF TRIGEMINAL NEURALGIA” (THE JOHNS HOPKINS UNIVERSITY, priority 2022, published 2025)

What was measured:
maxillary nerves = assay: Myelin basic protein (MBP) immunostaining of maxillary nerves; type: in vivo, mouse; settings: ten days post-surgery; sulforaphane 10, exemestane 10, JQ-1 40 mg/kg, i.p. daily; vs vehicle-treated ligated nerves
Description: Histology Maxillary nerves from mice were dissected and fixed in cold 4% formaldehyde (v/v) overnight at 4° C. Tissues were then cryoprotected through a series of 10%, 20%, and 30% sucrose (w/v) gradients for 24 hrs each at 4° C. Tissues were then embedded in Optimal Cutting Temperature compound (OCT) and sectioned in 20 μm intervals with a cryostat, after which the sections were dried onto slides and kept at […]. Sections were then processed for immunohistochemistry.
Immunohistochemistry was performed as previously described (Vasavda C et al., Cell Chem Biol 2019; 26(10):1450-1460.e7, incorporated herein by reference in its entirety). Briefly, sections were post-fixed with 4% parafomaldehyde for 15 min at 25° C. and then permeabilized with 100% methanol for 7 min at −20° C. The slides were then pre-incubated in blocking solution (10% normal goat serum (ThermoFisher Scientific)) for 30 min at 25° C. Sections were incubated overnight at 4° C. with the appropriate primary antibodies in blocking solution. Sections were washed and incubated with the appropriate secondary antibodies diluted 1:250 in blocking solution for 1 h at 25° C. Tissues were then mounted with ProLong Gold Antifade Mountant with DAPI (Invitrogen).
MBP immunostaining: Mice were first dosed daily with either sulforaphane (10 mg/kg, i.p.), exemestane (10 mg/kg, i.p.), JQ-1 (40 mg/kg, i.p.), or the appropriate vehicle for two days before surgical ligation of the maxillary nerve, after which they were dosed every 24 h for 10 days thereafter. MBP immunostaining was performed ten days post-surgery. MBP stains were interpreted by a pathologist to morphologically assess the degree of damage from nerve injury and response to drug treatment. Antibodies: primary antibodies: chicken anti-MBP (1:500); secondary antibodies: goat anti-chicken (Alexa 488, A32931 Invitrogen).

TRPA1 = assay: Western blot for TRPA1 from maxillary nerves; type: in vivo, mouse; settings: normalized to β-actin; vs vehicle
Excerpt: FIGS. 15A-15H are western blots for TRPA1 (FIGS. 15A, 15C, 15E, and 15G) and graphs of relative TRPA1 expression (FIGS. 15B, 15D, 15F and 15H) from maxillary nerves of mice following constriction compared to sham surgery (FIG. 15A-15B) or treatment with sulforaphane (FIG. 15C-15D), exemestane (FIG. 15E-15F), or JQ-1 (FIG. 15G-15H), normalized to β-actin. Lanes and points represent individual mice. Median and range depicted in graphs of relative TRPA1 expression. ns=P>0.05 by two-tailed unpaired Student's t-test.
Western Blotting Western blotting was performed as previously described (See Vasavda, C. et al. Cell Chem Biol 26, 1450-1460.e7 (2019)). Briefly, tissues were homogenized at 4° C. in lysis buffer (pH 7.4 solution of 50 mM Tris-HCl, 150 mM NaCl, 0.1% SDS, 0.5% sodium deoxycholate, and 1% Triton X-100) supplemented with protease inhibitors (Sigma). When dissecting maxillary nerves for immunoblot analysis, nerves were as dissected both as proximally towards the semilunar ganglion and as distal to the skin as possible. Nerves were harvested 11 days after surgery, immediately after the final behavioral test. Lysates were then pulse sonicated and centrifuged at 16,000 g for 10 min at 4° C. Fifteen micrograms of cleared lysate were run on a 4-12% polyacrylamide Bis-Tris gradient gel in running buffer (pH 7.3 solution of 50 mM MES, 50 mM Tris Base, 0.1% SDS, 1 mM EDTA) and then transferred to a PVDF membrane. Membranes were blocked with 5% milk in TBS-T (pH 7.6 solution of 16 mM Tris-HCl, 140 mM NaCl, 0.1% Tween-20) for 1 hr at 25° C. and then incubated with primary antibodies in 3% bovine serum albumin (BSA) (w/v) in TBS-T overnight at 4° C. The following day, membranes were washed with TBS-T, and then incubated with secondary antibodies in 3% BSA (w/v) in TBS-T for 1 hr at 25° C. The following primary antibodies were used: rabbit anti-4-HNE (Abeam ab46545; 1:1.000), rabbit anti-TRPA1 (Novus Biologicals NB110-40763; 1:1,000), rabbit anti-DNP (Millipore Sigma 90451; 1:150), and mouse anti-β-actin (Santa Cruz Biotech sc-47778 HRP; 1:10,000). […]

Compound	nerve architecture by myelin basic protein staining (maxillary nerves)	TRPA1 expression in maxillary nerves (TRPA1)
Cc1sc2c(c1C)C(c1ccc(Cl)cc1)=N[C@@H](CC(=O)OC(C)(C)C)c1nnc(C)n1-2 [JQ-1, (S)-tert-butyl 2-(4-(4-chlorophenyl)-2,3,9-trimethyl-6H-thieno[3,2-f][1,2,4]triazolo[4,3-a][1,4]diazepin-6-yl)acetate]	better preserved nerve architecture with increased density of myelinated axons of varying sizes	did not affect TRPA1 expression
C=C1C[C@@H]2[C@H](CC[C@]3(C)C(=O)CC[C@@H]23)[C@@]2(C)C=CC(=O)C=C12 [exemestane, 6-methylenandrosta-1,4-diene-3,17-dione]	better preserved nerve architecture with increased density of myelinated axons of varying sizes	did not affect TRPA1 expression
C[S+]([O-])CCCCN=C=S (stereo not drawn) [sulforaphane, 1-isothiocyanato-4-(methanesulfinyl)butane]	more normal architecture with myelinated axons of varying sizes	did not affect TRPA1 expression
